pIC50: −log10 of the molar value.
How the values were obtained:
Assay type in all cases: biochemical
human PDE4D3 = molecular target: T1, human PDE4D3 (Homo sapiens, UniProt Q08499); test: PDE4D3 Scintillation Proximity Assay (SPA), inhibition of enzyme activity; details: geometric mean of 2-7 determinations unless otherwise indicated (b: ≥8 determinations; c: single determination); 1 μM cAMP, 30 min at 25° C.; read-out: Human PDE4D FL; IC50
T1 construct: His6 (C); made in house; host or cells: insect cells (baculovirus, pFastBac)
Outline: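 Recombinant enzyme from insect cells, Ni-NTA and Q Sepharose purified, used at 10 pM in 50 mM Tris pH 7.5, 1.3 mM MgCl2, 0.01% Brij. Substrate 1 μM cAMP with 3H-cAMP tracer, ~20% conversion, inhibitor range, 30 min at 25°C. Stopped with yttrium silicate SPA beads and scintillation read.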

Human PDE4C1 = molecular target: T2, Human PDE4C1 (Homo sapiens, UniProt Q08493); test: PDE4C1 Scintillation Proximity Assay (SPA), inhibition of enzyme activity; details: geometric mean of 2-7 determinations unless otherwise indicated (b: ≥8 determinations; c: single determination), 1 μM cAMP, 30 min at 25° C., read-out: Human PDE4C FL
T2 construct: His6 (N); FLAG (C); made in house; host or cells: insect cells (baculovirus, pFastBac)
Outline: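 Human recombinant FLAG/His-purified PDE4C1 from insect cells at 40 pM, with 1 μM cAMP (3H-cAMP tracer) in Tris pH 7.5, 1.3 mM MgCl2, 0.01% Brij, ~20% substrate turnover. Incubation 30 min at 25° C with a range of inhibitor concentrations. Stopped with yttrium silicate SPA beads and read by scintillation after 8 h settling.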

Human PDE4A3 = molecular target: T3, Human PDE4A3 (Homo sapiens, UniProt P27815); test: PDE4A3 Scintillation Proximity Assay (SPA), inhibition of enzyme activity; details: geometric mean of 2-7 determinations unless otherwise indicated (b: ≥8 determinations; c: single determination), 1 μM cAMP, 30 min at 25° C., read-out: Human PDE4A FL
T3 construct: His6 (N); FLAG (C); made in house; host or cells: insect cells (baculovirus, pFastBac)
Outline: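 Human PDE4A3 (aa 2–825, His6/FLAG-tagged, insect-cell expressed) at 80 pM hydrolyses 1 μM cAMP including 20 nM 3H-cAMP, ~20% conversion. Buffer is 50 mM Tris pH 7.5, 1.3 mM MgCl2, 0.01% Brij. Incubated 30 min at 25 °C with inhibitor range, stopped with yttrium silicate SPA beads, read after 8 h settling.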

Human PDE4B1 = molecular target: T4, Human PDE4B1 (Homo sapiens, UniProt Q07343, S133E/S654A/S659A/S661A); test: PDE4B1 Scintillation Proximity Assay (SPA), inhibition of enzyme activity; details: geometric mean of 2-7 determinations unless otherwise indicated (b: ≥8 determinations; c: single determination); 1 μM cAMP, 30 min at 25° C.; read-out: Human PDE4B FL; IC50
T4 construct: His6 (N); thrombin cleavage site (N); made in house; host or cells: insect cells (baculovirus, pFastBac)
Outline: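 His-tagged human PDE4B1 expressed in insect cells and purified by Ni-NTA and Source 15Q was assayed in 50 mM Tris pH 7.5, 1.3 mM MgCl2, 0.01% Brij. The substrate was 1 μM cAMP with ³H-cAMP tracer, at about 20% conversion, for 30 min at 25 °C. Yttrium silicate SPA beads stopped the reaction; counts were read after 8 h settling.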

T3 sequence (P27815 2-825 isoform P27815-6): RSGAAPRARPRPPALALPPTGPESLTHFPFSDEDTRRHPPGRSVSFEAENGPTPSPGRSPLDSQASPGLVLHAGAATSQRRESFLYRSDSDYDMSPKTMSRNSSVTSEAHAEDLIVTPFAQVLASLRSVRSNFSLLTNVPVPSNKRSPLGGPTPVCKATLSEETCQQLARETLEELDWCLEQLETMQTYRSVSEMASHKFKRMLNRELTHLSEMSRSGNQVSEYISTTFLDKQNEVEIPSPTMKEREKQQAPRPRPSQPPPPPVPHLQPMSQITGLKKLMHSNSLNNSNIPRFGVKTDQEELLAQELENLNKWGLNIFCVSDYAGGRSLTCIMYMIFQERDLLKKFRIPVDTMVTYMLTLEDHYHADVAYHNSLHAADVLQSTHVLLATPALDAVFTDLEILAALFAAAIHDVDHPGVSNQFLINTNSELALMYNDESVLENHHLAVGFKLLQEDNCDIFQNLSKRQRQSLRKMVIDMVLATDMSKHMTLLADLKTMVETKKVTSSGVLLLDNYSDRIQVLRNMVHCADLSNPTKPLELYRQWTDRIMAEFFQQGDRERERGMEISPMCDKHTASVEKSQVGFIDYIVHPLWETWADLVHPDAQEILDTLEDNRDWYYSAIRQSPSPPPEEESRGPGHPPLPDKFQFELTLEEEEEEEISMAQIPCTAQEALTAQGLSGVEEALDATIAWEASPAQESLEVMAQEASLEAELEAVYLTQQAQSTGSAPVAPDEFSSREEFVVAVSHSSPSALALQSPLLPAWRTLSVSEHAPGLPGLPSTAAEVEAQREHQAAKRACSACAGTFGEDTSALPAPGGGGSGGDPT
T1 sequence (Q08499 186-808): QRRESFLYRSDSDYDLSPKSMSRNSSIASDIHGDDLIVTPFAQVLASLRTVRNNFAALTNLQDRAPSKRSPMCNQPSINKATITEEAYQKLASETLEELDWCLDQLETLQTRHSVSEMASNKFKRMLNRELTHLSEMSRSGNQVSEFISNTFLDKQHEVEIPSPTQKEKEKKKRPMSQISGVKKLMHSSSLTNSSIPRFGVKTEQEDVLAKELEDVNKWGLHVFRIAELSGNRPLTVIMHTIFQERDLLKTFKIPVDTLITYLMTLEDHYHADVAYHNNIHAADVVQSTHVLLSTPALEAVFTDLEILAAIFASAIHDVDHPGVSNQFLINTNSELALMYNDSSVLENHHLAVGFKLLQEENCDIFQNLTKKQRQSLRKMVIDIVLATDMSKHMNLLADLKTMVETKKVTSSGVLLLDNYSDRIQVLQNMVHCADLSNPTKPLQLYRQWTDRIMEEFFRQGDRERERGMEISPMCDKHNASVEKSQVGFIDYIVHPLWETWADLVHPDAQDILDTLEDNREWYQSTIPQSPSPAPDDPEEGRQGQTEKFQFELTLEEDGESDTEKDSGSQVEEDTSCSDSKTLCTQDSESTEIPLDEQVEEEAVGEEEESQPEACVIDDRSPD
T2 sequence (Q08493 2-712): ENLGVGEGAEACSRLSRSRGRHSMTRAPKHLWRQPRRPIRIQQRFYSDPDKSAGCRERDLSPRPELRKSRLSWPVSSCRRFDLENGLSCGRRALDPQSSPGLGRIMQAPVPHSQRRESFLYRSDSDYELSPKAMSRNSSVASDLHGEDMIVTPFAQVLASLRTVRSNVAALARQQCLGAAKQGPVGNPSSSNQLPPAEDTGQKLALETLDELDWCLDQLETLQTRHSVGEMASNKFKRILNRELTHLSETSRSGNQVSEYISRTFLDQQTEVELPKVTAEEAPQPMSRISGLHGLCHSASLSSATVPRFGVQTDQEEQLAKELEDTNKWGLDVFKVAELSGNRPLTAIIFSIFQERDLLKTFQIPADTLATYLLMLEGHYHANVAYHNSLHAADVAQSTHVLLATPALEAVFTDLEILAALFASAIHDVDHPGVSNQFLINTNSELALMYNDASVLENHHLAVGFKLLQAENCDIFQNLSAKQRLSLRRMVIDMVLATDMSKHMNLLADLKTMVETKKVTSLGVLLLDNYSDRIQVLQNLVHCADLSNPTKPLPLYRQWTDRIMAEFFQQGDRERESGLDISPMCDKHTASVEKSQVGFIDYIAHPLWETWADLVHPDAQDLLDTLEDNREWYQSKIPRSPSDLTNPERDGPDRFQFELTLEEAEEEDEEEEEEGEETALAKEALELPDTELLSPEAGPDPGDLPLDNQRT
T4 sequence (Q07343 122-736 S133E/S654A/S659A/S661A): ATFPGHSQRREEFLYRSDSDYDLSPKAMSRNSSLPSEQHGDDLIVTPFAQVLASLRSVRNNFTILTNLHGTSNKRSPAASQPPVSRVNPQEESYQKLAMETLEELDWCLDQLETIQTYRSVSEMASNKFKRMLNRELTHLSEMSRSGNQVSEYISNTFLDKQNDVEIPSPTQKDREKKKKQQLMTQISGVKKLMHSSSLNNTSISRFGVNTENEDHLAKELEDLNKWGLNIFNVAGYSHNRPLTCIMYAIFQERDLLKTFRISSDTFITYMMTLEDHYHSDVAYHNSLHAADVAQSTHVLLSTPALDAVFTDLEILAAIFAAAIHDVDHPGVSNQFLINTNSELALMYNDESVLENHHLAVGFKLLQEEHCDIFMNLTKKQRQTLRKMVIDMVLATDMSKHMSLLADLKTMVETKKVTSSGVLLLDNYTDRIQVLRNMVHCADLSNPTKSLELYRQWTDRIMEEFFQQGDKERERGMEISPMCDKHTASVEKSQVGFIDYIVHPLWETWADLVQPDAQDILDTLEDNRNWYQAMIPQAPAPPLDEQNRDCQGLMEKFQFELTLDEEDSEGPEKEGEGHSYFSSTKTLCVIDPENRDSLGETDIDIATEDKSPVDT

SMILES	pIC50 (human PDE4D3)	pIC50 (Human PDE4C1)	pIC50 (Human PDE4A3)	pIC50 (Human PDE4B1)
Cc1cc(Cl)ccc1-c1c(C(=O)NC(C)C)nn2cccnc12 [Example 51, 3-(4-chloro-2-methylphenyl)-N-(propan-2-yl)pyrazolo[1,5-a]pyrimidine-2-carboxamide]	< 4.78	6.50	6.84	6.31
CCNC(=O)c1nn2cccnc2c1-c1ccc(Cl)cc1 [Example 52, 3-(4-chlorophenyl)-N-ethylpyrazolo[1,5-a]pyrimidine-2-carboxamide]	5.23	6.94	6.85	6.63
CCNC(=O)c1nn2cccnc2c1-c1ccc(Cl)c(F)c1 [Example 53, 3-(4-chloro-3-fluorophenyl)-N-ethylpyrazolo[1,5-a]pyrimidine-2-carboxamide]	6.08	7.66	8.12	7.49
Cc1cc(Cl)c(F)cc1-c1c(C(=O)NC(C)C)nn2cccnc12 [Example 54, 3-(4-chloro-5-fluoro-2-methylphenyl)-N-(propan-2-yl)pyrazolo[1,5-a]pyrimidine-2-carboxamide]	6.33	7.23	7.89	7.61
Cc1cc(Cl)ccc1-c1c(C(=O)NC2CC2)nn2cc(F)cnc12 [Example 55, 3-(4-chloro-2-methylphenyl)-N-cyclopropyl-6-fluoropyrazolo[1,5-a]pyrimidine-2-carboxamide]	5.97	7.55	8.06	7.52
O=C(NC1CC1)c1nn2cc(F)cnc2c1-c1ccnc(OC(F)F)c1 [Example 56, N-cyclopropyl-3-[2-(difluoromethoxy)pyridin-4-yl]-6-fluoropyrazolo[1,5-a]pyrimidine-2-carboxamide]	7.11	7.71	8.41	7.65
O=C(NC1CC1)c1nn2cc(F)cnc2c1-c1cc(F)c(Cl)c(F)c1 [Example 57, 3-(4-chloro-3,5-difluorophenyl)-N-cyclopropyl-6-fluoropyrazolo[1,5-a]pyrimidine-2-carboxamide]	7.04	8.55	9.34	8.57
O=C(NC1CC1)c1nn2cc(F)cnc2c1-c1ccc(Cl)c(F)c1F [Example 58, 3-(4-chloro-2,3-difluorophenyl)-N-cyclopropyl-6-fluoropyrazolo[1,5-a]pyrimidine-2-carboxamide]	6.37	8.05	8.39	7.70
O=C(NC1CC1)c1nn2cc(F)cnc2c1-c1ccc(Cl)c(F)c1 [Example 59, 3-(4-chloro-3-fluorophenyl)-N-cyclopropyl-6-fluoropyrazolo[1,5-a]pyrimidine-2-carboxamide]	6.80	8.11	8.92	8.31
O=C(NC1CC1)c1nn2cccnc2c1-c1ccc2ocnc2c1 [Example 60, 3-(1,3-benzoxazol-5-yl)-N-cyclopropylpyrazolo[1,5-a]pyrimidine-2-carboxamide]	< 4.81	6.19	7.33	6.65
Cc1cc(Cl)c(F)cc1-c1c(C(=O)N2CCC2)nn2cccnc12 [Example 61, azetidin-1-yl[3-(4-chloro-5-fluoro-2-methylphenyl)pyrazolo[1,5-a]pyrimidin-2-yl]methanone]	7.01	7.70	8.70	8.10
N#Cc1c(F)cc(-c2c(C(=O)N3CCC3)nn3cccnc23)cc1F [Example 62, 4-[2-(azetidin-1-ylcarbonyl)pyrazolo[1,5-a]pyrimidin-3-yl]-2,6-difluorobenzonitrile]	6.62	7.42	8.36	7.76
Cc1ccc(-c2c(C(=O)NC3CC3)nn3cc(F)cnc23)cc1F [Example 63, N-cyclopropyl-6-fluoro-3-(3-fluoro-4-methylphenyl)pyrazolo[1,5-a]pyrimidine-2-carboxamide]	6.34	8.02	8.40	7.88
Cc1cc(Cl)c(F)cc1-c1c(C(=O)NC2CC2)nn2cc(F)cnc12 [Example 64, 3-(4-chloro-5-fluoro-2-methylphenyl)-N-cyclopropyl-6-fluoropyrazolo[1,5-a]pyrimidine-2-carboxamide]	7.28	8.35	9.00	8.70
O=C(NC1CC1)c1nn2cc(F)cnc2c1-c1ccc2ocnc2c1 [Example 65, 3-(1,3-benzoxazol-5-yl)-N-cyclopropyl-6-fluoropyrazolo[1,5-a]pyrimidine-2-carboxamide]	5.94	6.89	7.24	7.23
O=C(c1nn2cc(F)cnc2c1-c1ccc(Cl)c(F)c1)N1CCC1 [Example 66, azetidin-1-yl[3-(4-chloro-3-fluorophenyl)-6-fluoropyrazolo[1,5-a]pyrimidin-2-yl]methanone]	7.10	8.05	8.70	8.15
Cc1cc(C#N)c(F)cc1-c1c(C(=O)NC2CC2)nn2cc(F)cnc12 [Example 67, 3-(4-cyano-5-fluoro-2-methylphenyl)-N-cyclopropyl-6-fluoropyrazolo[1,5-a]pyrimidine-2-carboxamide]	6.95	7.57	8.46	7.79
N#Cc1ccc(-c2c(C(=O)N3CCC3)nn3cc(F)cnc23)cc1F [Example 68, 4-[2-(azetidin-1-ylcarbonyl)-6-fluoropyrazolo[1,5-a]pyrimidin-3-yl]-2-fluorobenzonitrile]	6.58	7.48	8.48	7.77
Cc1cc(C#N)c(F)cc1-c1c(C(=O)N2CCC2)nn2cccnc12 [Example 69, 4-[2-(azetidin-1-ylcarbonyl)pyrazolo[1,5-a]pyrimidin-3-yl]-2-fluoro-5-methylbenzonitrile]	7.03	7.44	8.47	7.76
Cc1ccc(-c2c(C(=O)NC3CC3)nn3cccnc23)cc1F [Example 70, N-cyclopropyl-3-(3-fluoro-4-methylphenyl)pyrazolo[1,5-a]pyrimidine-2-carboxamide]	6.17	7.77	8.09	7.63
O=C(NC1CC1)c1nn2cccnc2c1-c1ccc(Cl)c(F)c1F [Example 71, 3-(4-chloro-2,3-difluorophenyl)-N-cyclopropylpyrazolo[1,5-a]pyrimidine-2-carboxamide]	6.10	7.95	7.99	7.59
O=C(NC1CC1)c1nn2cc(F)cnc2c1-c1cc(F)c(Cl)cc1F [Example 72, 3-(4-chloro-2,5-difluorophenyl)-N-cyclopropyl-6-fluoropyrazolo[1,5-a]pyrimidine-2-carboxamide]	7.37	8.29	9.11	8.52
CNC(=O)c1nn2cccnc2c1-c1ccc(Cl)cc1 [Example 73, 3-(4-chlorophenyl)-N-methylpyrazolo[1,5-a]pyrimidine-2-carboxamide]	< 4.55	6.36	6.18	5.68
N#Cc1ccc(-c2c(C(=O)N3CCC3)nn3cccnc23)c(F)c1 [Example 75, 4-[2-(azetidin-1-ylcarbonyl)pyrazolo[1,5-a]pyrimidin-3-yl]-3-fluorobenzonitrile]	< 4.55	6.53	6.13	6.42

Reference: patent publication US10131669B2, “Pyrazolopyrimidine compounds” (Pfizer Inc., priority 2014, dated 2018)
